Molecular target: T1, human CGT (Homo sapiens, UniProt Q16880)
T1 sequence (Q16880 21-541): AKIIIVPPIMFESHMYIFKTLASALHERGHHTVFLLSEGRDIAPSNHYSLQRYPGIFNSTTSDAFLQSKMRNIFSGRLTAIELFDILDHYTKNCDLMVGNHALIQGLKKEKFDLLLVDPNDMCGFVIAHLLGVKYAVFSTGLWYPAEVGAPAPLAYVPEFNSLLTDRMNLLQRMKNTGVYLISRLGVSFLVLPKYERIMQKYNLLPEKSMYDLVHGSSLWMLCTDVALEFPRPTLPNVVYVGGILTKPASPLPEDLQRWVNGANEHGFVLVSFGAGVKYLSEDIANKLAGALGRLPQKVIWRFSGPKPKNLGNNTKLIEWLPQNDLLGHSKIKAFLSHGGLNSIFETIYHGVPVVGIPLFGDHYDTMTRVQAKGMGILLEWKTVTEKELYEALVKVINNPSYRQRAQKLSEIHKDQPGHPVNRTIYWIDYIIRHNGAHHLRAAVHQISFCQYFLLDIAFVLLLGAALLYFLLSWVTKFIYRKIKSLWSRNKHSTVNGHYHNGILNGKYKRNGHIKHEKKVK
Assay: Assay 1: CGT Enzymatic Assay (RapidFire/MS/MS, 0.01% Tween 80)
Type: biochemical
Conditions: Table 1, Compounds of Formula (I) and Formula (II); CGT enzymatic assay, C6-NBD-dihydro-galactosylceramide readout; read-out: IC50

Structure (SMILES)	IC50 [µM]
CC1(C)N(c2ccc(Cl)cc2)C(=O)N(c2ccc(C#N)cc2)C1(O)c1cccc(C#N)c1 (stereo not shown) [Example 323, 3-(1-(4-chlorophenyl)-3-(4-cyanophenyl)-4-hydroxy-5,5-dimethyl-2-oxoimidazolidin-4-yl)benzonitrile]	< 1
N#Cc1ccc(N2C(=O)N(c3ccc(Br)cc3)C(O)(c3cccc(OC(F)(F)F)c3)C23CCCC3)cc1 (stereo not shown) [Example 325, 4-(3-(4-bromophenyl)-4-hydroxy-2-oxo-4-(3-(trifluoromethoxy)phenyl)-1,3-diazaspiro[4.4]nonan-1-yl)benzonitrile]	< 1
N#Cc1ccc(N2C(=O)N(c3ccc(C#N)cc3)C(O)(c3cccc(OC(F)(F)F)c3)C23CCCC3)cc1 (stereo not shown) [Example 326, 4,4′-(4-hydroxy-2-oxo-4-(3-(trifluoromethoxy)phenyl)-1,3-diazaspiro[4.4]nonane-1,3-diyl)dibenzonitrile]	< 1
Cc1ccc(N2C(=O)N(c3ccc(C)cc3)C(O)(c3cccc(OC(F)(F)F)c3)C23CCCC3)cc1 (stereo not shown) [Example 327, 4-hydroxy-1,3-di-p-tolyl-4-(3-(trifluoromethoxy)phenyl)-1,3-diazaspiro[4.4]nonan-2-one]	< 1
COc1ccc(N2C(=O)N(c3ccc(OC)cc3)C(O)(c3cccc(C#N)c3)C2(C)C)cc1 (stereo not shown) [Example 328, 3-(4-hydroxy-1,3-bis(4-methoxyphenyl)-5,5-dimethyl-2-oxoimidazolidin-4-yl)benzonitrile]	1 to 10
COc1ccc(N2C(=O)N(c3ccc(OC)cc3)C(O)(c3cccc(C#N)c3)C2C(C)C)cc1 (stereo not shown) [Example 330, 3-(4-hydroxy-5-isopropyl-1,3-bis(4-methoxyphenyl)-2-oxoimidazolidin-4-yl)benzonitrile]	< 1
O=C1N(c2ccc(Cl)cc2)C2(CCC2)C(O)(c2cccc(OC(F)(F)F)c2)N1c1ccccc1 (stereo not shown) [Example 332, 5-(4-chlorophenyl)-8-hydroxy-7-phenyl-8-(3-(trifluoromethoxy)phenyl)-5,7-diazaspiro[3.4]octan-6-one]	< 1
Cc1ccc(N2C(=O)N(c3ccc(Cl)cc3)C3(CCC3)C2(O)c2cccc(OC(F)(F)F)c2)cc1 (stereo not shown) [Example 333, 5-(4-chlorophenyl)-8-hydroxy-7-(p-tolyl)-8-(3-(trifluoromethoxy)phenyl)-5,7-diazaspiro[3.4]octan-6-one]	< 1
O=C1N(c2ccccc2)C2(CCC2)C(O)(c2cccc(OC(F)(F)F)c2)N1c1ccc(Cl)cc1 (stereo not shown) [Example 334, 7-(4-chlorophenyl)-8-hydroxy-5-phenyl-8-(3-(trifluoromethoxy)phenyl)-5,7-diazaspiro[3.4]octan-6-one]	< 1
N#Cc1ccc(N2C(=O)N(c3ccccc3)C3(CCC3)C2(O)c2cccc(OC(F)(F)F)c2)cc1 (stereo not shown) [Example 335, 4-(8-hydroxy-6-oxo-5-phenyl-8-(3-(trifluoromethoxy)phenyl)-5,7-diazaspiro[3.4]octan-7-yl)benzonitrile]	< 1
N#Cc1ccc(N2C(=O)N(c3ccccc3)C(O)(c3cccc(OC(F)(F)F)c3)C23CCC3)cc1 (stereo not shown) [Example 336, 4-(8-hydroxy-6-oxo-7-phenyl-8-(3-(trifluoromethoxy)phenyl)-5,7-diazaspiro[3.4]octan-5-yl)benzonitrile]	< 1
CCc1ccc(N2C(=O)N(c3ccc(C#N)cc3)C3(COC3)C2(O)c2cccc(OC(F)(F)F)c2)cc1 (stereo not shown) [Example 337, 4-(7-(4-ethylphenyl)-8-hydroxy-6-oxo-8-(3-(trifluoromethoxy)phenyl)-2-oxa-5,7-diazaspiro[3.4]octan-5-yl)benzonitrile]	< 1

The remaining lines, values ahead:

IC50 [µM]	Structure (SMILES)
< 1	CC1(C)N(c2ccc(Cl)cc2)C(=O)N(c2ccc(Cl)cc2)C1(O)c1cccc(C2CCO2)c1 (stereo not shown) [Example 324-1, 1,3-bis(4-chlorophenyl)-4-hydroxy-5,5-dimethyl-4-(3-(oxetan-2-yl)phenyl)imidazolidin-2-one]
1 to 10	CC1(C)N(c2ccc(Cl)cc2)C(=O)N(c2ccc(Cl)cc2)C1(O)c1cccc(C2COC2)c1 (stereo not shown) [Example 324-2, 1,3-bis(4-chlorophenyl)-4-hydroxy-5,5-dimethyl-4-(3-(oxetan-3-yl)phenyl)imidazolidin-2-one]
1 to 10	COc1ccc(N2C(=O)N(c3ccc(OC)cc3)C(O)(c3cccc(OC(F)(F)F)c3)[C@@H]2C(C)C)cc1 (stereo partly drawn) [Example 329-1, (5S)-4-hydroxy-5-isopropyl-1,3-bis(4-methoxyphenyl)-4-(3-(trifluoromethoxy)phenyl)imidazolidin-2-one]
< 1	COc1ccc(N2C(=O)N(c3ccc(OC)cc3)C(O)(c3cccc(OC(F)(F)F)c3)[C@H]2C(C)C)cc1 (stereo partly drawn) [Example 329-2, (5R)-4-hydroxy-5-isopropyl-1,3-bis(4-methoxyphenyl)-4-(3-(trifluoromethoxy)phenyl)imidazolidin-2-one]
< 1	C[C@]1(C(F)(F)F)N(c2ccc(Cl)cc2)C(=O)N(c2ccc(Cl)cc2)C1(O)c1cc(C#N)cc(C#N)c1 (stereo partly drawn) [Example 331-1, 5-((5S)-1,3-bis(4-chlorophenyl)-4-hydroxy-5-methyl-2-oxo-5-(trifluoromethyl)imidazolidin-4-yl)isophthalonitrile]
< 1	C[C@@]1(C(F)(F)F)N(c2ccc(Cl)cc2)C(=O)N(c2ccc(Cl)cc2)C1(O)c1cc(C#N)cc(C#N)c1 (stereo partly drawn) [Example 331-2, 5-((5R)-1,3-bis(4-chlorophenyl)-4-hydroxy-5-methyl-2-oxo-5-(trifluoromethyl)imidazolidin-4-yl)isophthalonitrile]

Molecular target: T1, human CGT
Assay: CGT Enzyme Assay (Biological Example 2, RapidFire/MS/MS method with 0.01% Tween 80 added)
Type: biochemical
Conditions: enzymatic assay, CHO/CGT lysate
Experimental: Full-length human CGT cDNA was cloned into the BamH1/Xho1 site of pcDNA3.1 (+) mammalian expression vector (V90-20, Invitrogen, Carlsbad, Calif.) and the plasmid was transfected into Chinese hamster ovary (CHO) cells. Lysate was prepared using M-PER (Mammalian Protein Extraction Reagent, ThermoFisher Scientific, Grand Island, N.Y.) in the presence of a protease inhibitor cocktail (P8340, Sigma, Saint Louis, Mo.). Each 100 mm dish (100% confluent, approximately 1×10^7 cells) was lysed with 250 μL of M-PER containing protease inhibitors. Protein concentration was determined using a Pierce BCA protein assay kit (ThermoFisher Scientific). […] The final concentration of DMSO was 0.5% in both compound-treated and mock-treated samples. Each individual reaction was diluted with 80 μL of methanol:acetronitrile (1:3) containing 5 μM N-docdecanoyl-NBD-galactosylceramide (internal standard) to stop the reaction. 200 μL H2O:acetonitile (1:1) was added to precipitate the protein. After sufficient mixing, the plates were centrifuged at 2469 g for 38 minutes, 200 μl of supernatant was transferred to a LC-MS 96-deep well plate and a second spin was performed at 2469 g for 10 minutes. The final supernatant was injected in triplicate for RapidFire/MS/MS analysis.
The quantitative analysis of C6-NBD-dihydro-ceramide and C6-NBD-dihydro-galactosylceramide was performed on a Rapid Fire 360 high-throughput mass spectrometry system (Agilent Technologies, Palo Alto, Calif.) coupled with a API4000^+ triple quadrupole mass spectrometer (Applied Biosystems, Concord, Ontario, Canada). RapidFire software packages, including RapidFire Control panel, RapidFire UI and RapidFire Integrator (Agilent Technologies), were used to control the RapidFire instrument and to process data. Analyst 1.6.2 software packages (Applied Biosystems) were used to control the MS system and acquire MS data. 10 μL of sample was loaded on a micro-scale C4 solid-phase extraction (SPE) cartridge (Agilent Technologies) and salts were removed using water supplemented with 0.1% formic acid at the flow rate of 1.5 mL/min for 3 sec. C6-NBD-dihydro-ceramide and C6-NBD-dihydro-galactosylceramide were co-eluted into the mass spectrometer using acetonitrile containing 0.1% formic acid at the flow rate of 1.0 mL/min for 3 sec. The total cycle time of one injection was 8 secs. The MS/MS detection was performed in ESI negative mode.
The C6-NBD-dihydro-galactosylceramide reading was normalized first by dividing the peak area of C6-NBD-dihydro-galactosylceramide by the peak area of the internal standard, N-docdecanoyl-NBD-galactosylceramide.

IC50 [µM]	Structure (SMILES)
30 to 100	O=C1N(c2ccc(Br)cc2)C2CCCCC2N1c1ccc(Br)cc1 (stereo not shown) [Example 1]
30 to 100	C[C@H]1[C@H](c2ccccc2)N(c2ccc(Br)cc2)C(=O)N1c1ccc(Br)cc1 [Example 2-1, (4S,5S)-1,3-bis(4-bromophenyl)-4-methyl-5-phenylimidazolidin-2-one]
< 1	C[C@@H]1[C@@H](c2ccccc2)N(c2ccc(Br)cc2)C(=O)N1c1ccc(Br)cc1 [Example 2-2, (4R,5R)-1,3-bis(4-bromophenyl)-4-methyl-5-phenylimidazolidin-2-one]
1 to 10	C[C@H]1[C@@H](c2ccccc2)N(c2ccc(Br)cc2)C(=O)N1c1ccc(Br)cc1 [Example 2-3, (4S,5R)-1,3-bis(4-bromophenyl)-4-methyl-5-phenylimidazolidin-2-one]
30 to 100	Cc1cccc(C2C(C)N(c3ccc(Cl)cc3)C(=O)N2c2ccc(Cl)cc2)c1 (stereo not shown) [Example 3]
10 to 30	C[C@H]1[C@H](c2cccc(OC(F)(F)F)c2)N(c2ccc(Cl)cc2)C(=O)N1c1ccc(Cl)cc1 [Example 4-1, (4S,5S)-1,3-bis(4-chlorophenyl)-4-methyl-5-(3-(trifluoromethoxy)phenyl)imidazolidin-2-one]
10 to 30	C[C@@H]1[C@@H](c2cccc(OC(F)(F)F)c2)N(c2ccc(Cl)cc2)C(=O)N1c1ccc(Cl)cc1 [Example 4-2, (4R,5R)-1,3-bis(4-chlorophenyl)-4-methyl-5-(3-(trifluoromethoxy)phenyl)imidazolidin-2-one]
10 to 30	C[C@@H]1[C@@H](c2cccc(C#N)c2)N(c2ccc(Cl)cc2)C(=O)N1c1ccc(Cl)cc1 [Example 5-1, 3-((4R,5R)-1,3-bis(4-chlorophenyl)-5-methyl-2-oxoimidazolidin-4-yl)benzonitrile]
10 to 30	C[C@H]1[C@H](c2cccc(C#N)c2)N(c2ccc(Cl)cc2)C(=O)N1c1ccc(Cl)cc1 [Example 5-2, 3-((4S,5S)-1,3-bis(4-chlorophenyl)-5-methyl-2-oxoimidazolidin-4-yl)benzonitrile]
10 to 30	CC1(C)[C@@H](c2cccc(C(F)(F)F)c2)N(c2ccc(Cl)cc2)C(=O)N1c1ccc(Cl)cc1 [Example 6-1, (R)-1,3-bis(4-chlorophenyl)-4,4-dimethyl-5-(3-(trifluoromethyl)phenyl)imidazolidin-2-one]

— US20190134005A1 (BioMarin Pharmaceutical Inc., priority 2016, published 2019)
